# According to paper PMC3776002 (International journal of infectious diseases : IJID : …, 2013):
# Assay: Steady-state plasma LPV pharmacokinetics with and without African potato
# Format: in vivo, human
# Conditions: for CLF (apparent clearance), arithmetic mean (SD): LPV; for AUC: AUCτ; for concentration at 12 h: Ctrough
# [1] = plasma LPV, steady state, day 21, LPV/r plus African potato, n = 16
# [2] = plasma LPV, expressed as a percentage of the GM of LPV/r alone, n = 16
compound,measurement,setting,value
"Cc1cccc(C)c1OCC(=O)N[C@@H](Cc1ccccc1)[C@@H](O)C[C@H](Cc1ccccc1)NC(=O)[C@H](C(C)C)N1CCCNC1=O [LPV, Lopinavir]","CLF (apparent clearance), arithmetic mean (SD)","steady state, day 14, LPV/r alone, n = 16",4.61 (1.56) l/h
same,"CLF (apparent clearance), arithmetic mean (SD)","steady state, day 21, LPV/r plus African potato, n = 16",4.64 (1.32) l/h
same,Cmax,"human, plasma, oral",10100 ng/mL
same,AUC,"human, plasma, oral, arithmetic mean (SD), plasma LPV, steady state, day 14, LPV/r 400/100 mg twice daily alone, n = 16",94400 ng·h/mL
same,AUC,"human, plasma, oral, arithmetic mean (SD), plasma LPV, steady state, day 21, LPV/r 400/100 mg twice daily plus African potato four capsules once daily for 7 days, n = 16",93200 ng·h/mL
same,concentration at 12 h,"human, plasma, oral, arithmetic mean (SD), plasma LPV, steady state, day 14, LPV/r alone, n = 16",4850 ng/mL
same,concentration at 12 h,"human, plasma, oral, arithmetic mean (SD), plasma LPV, steady state, day 21, LPV/r plus African potato, n = 16",4900 ng/mL
same,concentration at 12 h,"human, plasma, oral, geometric mean, plasma LPV, steady state, day 14, LPV/r alone, n = 16",4130 ng/mL
same,concentration at 12 h,"human, plasma, oral, geometric mean, plasma LPV, steady state, day 21, LPV/r plus African potato, n = 16",4380 ng/mL
same,"AUCτ, geometric mean","plasma LPV, steady state, day 14, LPV/r alone, n = 16",90780 ng·h/mL
same,"AUCτ, geometric mean",[1],89660 ng·h/mL
same,"Cmax, arithmetic mean (SD)",[1],10.18 (2.25) μg/ml
same,"AUCτ, PE (point estimate of the ratio of geometric means of LPV/r plus African potato and LPV/r)",[2],98.77%
same,"Cmax, PE (point estimate of the ratio of geometric means of LPV/r plus African potato and LPV/r)",[2],100.90%
same,"Ctrough, PE (point estimate of the ratio of geometric means of LPV/r plus African potato and LPV/r)",[2],105.98%
